Results as given in US9802899B2, “Heterocyclic compounds as pesticides” (BAYER CROPSCIENCE AG, priority 2012, dated 2017).

Assay: Determination of the log P values by HPLC (formic acid method)
Assay type: physicochemical
Conditions: reversed-phase HPLC column (C 18), reversed-phase column (C 18), acidic range (pH 3.4), 55° C.
Experimental: 1) Description of Method for Determination of the Log P Values (Formic Acid Method)
Eluents for determination in the acidic range (pH 3.4):
Eluent A: acetonitrile+1 ml of formic acid/liter. Eluent B: water+0.9 ml of formic acid/liter.
The lambda max values were determined in the maxima of the chromatographic signals using the UV spectra from 200 nm to 400 nm.

Compound | chromatographic logP
CCN(CC)c1ccc(C#N)c(-n2ccc(NC(=O)c3ccccc3C(F)(F)F)n2)n1 [Compound I-1-568, N-{1-[3-Cyano-6-(diethylamino)pyridin-2-yl]-1H-pyrazol-3-yl}-2-(trifluoromethyl)benzamide] | 3.76
N#Cc1ccc(C(F)(F)F)nc1-n1ccc(NC(=O)c2ccccc2C(F)(F)F)n1 [Compound I-1-569, N-{1-[3-Cyano-6-(trifluoromethyl)pyridin-2-yl]-1H-pyrazol-3-yl}-2-(trifluoromethyl)benzamide] | 3.41
N#Cc1c(C(F)(F)F)cc(C2CC2)nc1-n1ccc(NC(=O)c2ccccc2C(F)(F)F)n1 [Compound I-1-570, N-{1-[3-Cyano-6-cyclopropyl-4-(trifluoromethyl)pyridin-2-yl]-1H-pyrazol-3-yl}-2-(trifluoromethyl)benzamide] | 3.99
Cc1cc(C(F)(F)F)c(C#N)c(-n2ccc(NC(=O)c3ccccc3C(F)(F)F)n2)n1 [Compound I-1-571, N-{1-[3-Cyano-6-methyl-4-(trifluoromethyl)pyridin-2-yl]-1H-pyrazol-3-yl}-2-(trifluoromethyl)benzamide] | 3.49
CCCc1ccc(C#N)c(-n2ccc(NC(=O)c3ccccc3C(F)(F)F)n2)n1 [Compound I-1-573, N-[1-(3-Cyano-6-propylpyridin-2-yl)-1H-pyrazol-3-yl]-2-(trifluoromethyl)benzamide] | 3.8
O=C(Nc1ccn(-c2nccc(I)c2F)n1)c1ccccc1C(F)(F)F [Compound I-1-576, N-[1-(3-Fluoro-4-iodopyridin-2-yl)-1H-pyrazol-3-yl]-2-(trifluoromethyl)benzamide] | 2.96
CC(=O)Nc1cc(F)c(-n2ccc(NC(=O)c3ccccc3C(F)(F)F)n2)c(F)c1 [Compound I-1-583, N-[1-(4-Acetamido-2,6-difluorophenyl)-1H-pyrazol-3-yl]-2-(trifluoromethyl)benzamide] | 2.28
CC(=O)c1cc(F)c(-n2ccc(NC(=O)c3ccccc3C(F)(F)F)n2)c(F)c1 [Compound I-1-584, N-[1-(4-Acetyl-2,6-difluorophenyl)-1H-pyrazol-3-yl]-2-(trifluoromethyl)benzamide] | 2.7
N#Cc1c(-n2ccc(NC(=O)c3ccccc3C(F)(F)F)n2)ccnc1Cl [Compound I-1-585, N-[1-(2-Chloro-3-cyanopyridin-4-yl)-1H-pyrazol-3-yl]-2-(trifluoromethyl)benzamide] | 2.67
N#Cc1c(Cl)ccnc1-n1ccc(NC(=O)c2ccccc2C(F)(F)F)n1 [Compound I-1-586, N-[1-(4-Chloro-3-cyanopyridin-2-yl)-1H-pyrazol-3-yl]-2-(trifluoromethyl)benzamide] | 2.67

Continued, values first:

chromatographic logP | Compound
2.94 | N#Cc1cc(F)c(-n2ccc(NC(=O)c3ccccc3C(F)(F)F)n2)nc1Cl [Compound I-1-606, N-[1-(6-Chloro-5-cyano-3-fluoropyridin-2-yl)-1H-pyrazol-3-yl]-2-(trifluoromethyl)benzamide]
3.14 | N#Cc1ccc(Cl)nc1-n1ccc(NC(=O)c2ccccc2C(F)(F)F)n1 [Compound I-1-607, N-[1-(6-Chloro-3-cyanopyridin-2-yl)-1H-pyrazol-3-yl]-2-(trifluoromethyl)benzamide]
3.17 | N#Cc1ccc(-n2ccc(NC(=O)c3ccccc3C(F)(F)F)n2)nc1Cl [Compound I-1-608, N-[1-(6-Chloro-5-cyanopyridin-2-yl)-1H-pyrazol-3-yl]-2-(trifluoromethyl)benzamide]

Same assay, conditions: reversed-phase column (C 18), acidic range (pH 3.4), 55° C.

Compound | log P
O=C(Nc1ccn(-c2ncccc2Br)n1)c1ccccc1I [Compound I-1-554] | 2.42
O=C(Nc1ccn(-c2cccc(Cl)c2F)n1)c1c(F)cccc1F [Compound I-1-556] | 3.12
O=C(Nc1ccn(-c2cccc(Cl)c2F)n1)c1ccccc1Br [Compound I-1-557] | 3.31
O=C(Nc1ccn(-c2cccc(Cl)c2F)n1)c1cccnc1Br [Compound I-1-558] | 2.64
O=C(Nc1ccn(-c2cccc(Cl)c2F)n1)c1ccccc1Cl [Compound I-1-559] | 3.30
O=C(Nc1ccn(-c2ncc(C(F)(F)F)cc2Cl)n1)c1ccccc1C(F)(F)F [Compound I-1-560] | 3.41
O=C(Nc1ccn(-c2ncc(C(F)(F)F)cc2Cl)n1)c1ccccc1Cl [Compound I-1-561] | 3.30
O=C(Nc1ccn(-c2ncccc2Cl)n1)c1c(F)cccc1F [Compound I-1-564] | 2.12
O=C(Nc1ccn(-c2ncccc2Cl)n1)c1cccnc1Br [Compound I-1-565] | 1.68
O=C(Nc1ccn(-c2ncccc2Cl)n1)c1ccsc1I [Compound I-1-566] | 2.46
Cc1cc(C)c(C#N)c(-n2ccc(NC(=O)c3ccccc3C(F)(F)F)n2)n1 [Compound I-1-567] | 3.15
Cc1ccc(C#N)c(-n2ccc(NC(=O)c3ccccc3C(F)(F)F)n2)n1 [Compound I-1-572] | 2.92
O=C(Nc1ccn(-c2ncccc2F)n1)c1cccnc1OC(F)(F)F [Compound I-1-577] | 2.33
O=C(Nc1ccn(-c2ncccc2F)n1)c1cccnc1Br [Compound I-1-578] | 1.57
O=C(Nc1ccn(-c2ncccc2F)n1)c1cccnc1Cl [Compound I-1-579] | 1.53
O=C(Nc1ccn(-c2ncccc2F)n1)c1c(F)cccc1C(F)(F)F [Compound I-1-580] | 2.36

Compound | log P
O=C(Nc1ccn(-c2ncccc2F)n1)c1ccsc1I [Compound I-1-581] | 2.30
O=C(Nc1ccn(-c2ncccc2F)n1)c1occc1I [Compound I-1-582] | 2.16
O=C(Nc1ccn(-c2ncc(Cl)cc2F)n1)c1ccccc1C(F)(F)F [Compound I-1-587] | 2.91
O=C(Nc1ccn(-c2ncc(Cl)cc2F)n1)c1c(F)cccc1F [Compound I-1-588] | 2.60
O=C(Nc1ccn(-c2ncc(Cl)cc2F)n1)c1ccccc1Br [Compound I-1-589] | 2.78
O=C(Nc1ccn(-c2ncc(Cl)cc2F)n1)c1ccccc1Cl [Compound I-1-590] | 2.74
O=C(Nc1ccn(-c2ncc(Cl)cc2F)n1)c1c(F)cccc1C(F)(F)F [Compound I-1-591] | 2.98
O=C(Nc1ccn(-c2ncc(Cl)cc2F)n1)c1ccsc1I [Compound I-1-592] | 2.99
O=C(Nc1ccn(-c2ncc(Cl)cc2F)n1)c1ccccc1I [Compound I-1-593] | 2.89
N#Cc1cncnc1-n1ccc(NC(=O)c2ccccc2C(F)(F)F)n1 [Compound I-1-594] | 2.34
N#Cc1cncnc1-n1ccc(NC(=O)c2c(F)cccc2F)n1 [Compound I-1-595] | 2.03
O=C(Nc1ccn(-c2ccc(F)cn2)n1)c1cccnc1C(F)(F)F [Compound I-1-597] | 2.32
O=C(Nc1ccn(-c2ccc(F)cn2)n1)c1ccccc1I [Compound I-1-599] | 2.78
O=C(Nc1ccn(-c2ncc(F)cn2)n1)c1ccccc1C(F)(F)F [Compound I-1-600] | 2.13
O=C(Nc1ccn(-c2ncc(F)cn2)n1)c1cccnc1C(F)(F)F [Compound I-1-601] | 1.73

Other lines, results leading:

log P | Compound
1.83 | O=C(Nc1ccn(-c2ncc(F)cn2)n1)c1c(F)cccc1F [Compound I-1-602]
1.94 | O=C(Nc1ccn(-c2ncc(F)cn2)n1)c1ccccc1Br [Compound I-1-603]
1.91 | O=C(Nc1ccn(-c2ncc(F)cn2)n1)c1ccccc1Cl [Compound I-1-604]
2.05 | O=C(Nc1ccn(-c2ncc(F)cn2)n1)c1ccccc1I [Compound I-1-605]
3.00 | O=C(Nc1ccn(-c2c(F)cccc2F)n1)c1ccccc1CC(F)(F)F [Compound I-1-610]
2.53 | O=C(Nc1ccn(-c2c(F)cccc2F)n1)C1=C(C(F)F)OCCS1 [Compound I-1-611]
3.53 | O=C(Nc1ccn(-c2c(F)cccc2F)n1)c1ccccc1NC(=O)C(F)(F)F [Compound I-1-612]
2.72 | O=C(Nc1ccn(-c2c(F)cccc2F)n1)c1c(F)cccc1Br [Compound I-1-613]
2.86 | O=C(Nc1ccn(-c2c(F)cccc2F)n1)c1c(Cl)cccc1C(F)(F)F [Compound I-1-614]
2.42 | CC1=C(C(=O)Nc2ccn(-c3c(F)cccc3F)n2)OCCO1 [Compound I-1-615]
1.80 | CC1=C(C(=O)Nc2ccn(-c3c(F)cccc3F)n2)S(=O)(=O)CCO1 [Compound I-1-616]
2.72 | N#Cc1c(F)cccc1-n1ccc(NC(=O)c2ccccc2C(F)(F)F)n1 [Compound I-1-617]
2.26 | N#Cc1c(F)cccc1-n1ccc(NC(=O)c2cccnc2C(F)(F)F)n1 [Compound I-1-618]
2.45 | N#Cc1c(F)cccc1-n1ccc(NC(=O)c2c(F)cccc2F)n1 [Compound I-1-619]
2.61 | N#Cc1c(F)cccc1-n1ccc(NC(=O)c2ccccc2Br)n1 [Compound I-1-620]
2.57 | N#Cc1c(F)cccc1-n1ccc(NC(=O)c2ccccc2Cl)n1 [Compound I-1-621]
1.95 | N#Cc1c(F)cccc1-n1ccc(NC(=O)c2cccnc2Cl)n1 [Compound I-1-622]
2.68 | N#Cc1c(F)cccc1-n1ccc(NC(=O)c2c(F)cccc2C(F)(F)F)n1 [Compound I-1-623]
2.79 | N#Cc1c(F)cccc1-n1ccc(NC(=O)c2ccsc2I)n1 [Compound I-1-624]
2.63 | N#Cc1c(F)cccc1-n1ccc(NC(=O)c2ccccc2I)n1 [Compound I-1-625]
2.67 | N#Cc1cc(F)ccc1-n1ccc(NC(=O)c2ccccc2C(F)(F)F)n1 [Compound I-1-626]
2.21 | N#Cc1cc(F)ccc1-n1ccc(NC(=O)c2cccnc2C(F)(F)F)n1 [Compound I-1-627]
2.39 | N#Cc1cc(F)ccc1-n1ccc(NC(=O)c2c(F)cccc2F)n1 [Compound I-1-628]
